Test results reported in patent US20260234555A1 (priority 2022, published 2026).

Tested on: mouse salivary gland organoids

Compound | effect on the morphology and growth of the organoids | changes in the morphology and growth of the organoids
CC(=O)OCC[N+](C)(C)C.[Cl-] [acetylcholine, Acetylcholine chloride] | no effect | 
CN(C)C(=O)Oc1cccc([N+](C)(C)C)c1 [neostigmine, Neostigmine bromide] |  | no significant changes
